pIC50: −log10 of the molar value.

The test deals with Cyclin-dependent kinase 2 (Homo sapiens, UniProt P24941). In words: Inhibition of CDK2 in human OVCAR-3 cells assessed as inhibition of retinoblastoma protein phosphorylation at S807/811 residues measured after 24 hrs by TR-FRET assay. Format: cell-based. For orientation: In TR-FRET formats the signal depends on donor and acceptor labels being close together.
As to `O=C1CCC(N2C(=O)c3cc(F)c(N4CCN(Cc5cccc(S(=O)(=O)N6CCC(Nc7ncc(Cl)c(-c8cnn(CC(F)(F)F)c8)n7)CC6)c5)CC4)cc3C2=O)C(=O)N1` (stereo not drawn), the negative-log IC50 (pIC50) was greater than 7.00.

Take `O=C1CCC(N2Cc3ccc(N4CCC5(CCN(Cc6cccc(S(=O)(=O)N7CCC(Nc8ncc(C(F)(F)F)c(-c9cnn(CC(F)(F)F)c9)n8)CC7)c6)CC5)CC4)cc3C2=O)C(=O)N1` (stereo not drawn): the pIC50 was greater than 7.00.

Turning to `O=C1CCC(c2ccc(N3CCN(Cc4cccc(S(=O)(=O)N5CCC(Nc6ncc(C(F)(F)F)c(-c7cnn(CC(F)(F)F)c7)n6)CC5)c4)CC3)cc2)C(=O)N1` (stereo not drawn), the pIC50 was greater than 7.00.

In the case of `O=C1CCC(N2C(=O)c3cc(F)c(N4CC5(CN(Cc6cccc(S(=O)(=O)N7CCC(Nc8ncc(C(F)(F)F)c(-c9cnn(CC(F)(F)F)c9)n8)CC7)c6)C5)C4)cc3C2=O)C(=O)N1` (stereo not drawn), the pIC50 was greater than 7.00.

On to `O=C1CCC(N2Cc3cc(C4CN(Cc5cccc(S(=O)(=O)N6CCC(Nc7ncc(C(F)(F)F)c(-c8cnn(CC(F)(F)F)c8)n7)CC6)c5)C4)ccc3C2=O)C(=O)N1` (stereo not drawn), for which the pIC50 was greater than 7.00.

Regarding `Cn1nc(N2CCC(=O)NC2=O)c2cc(C3CCN(Cc4cccc(S(=O)(=O)N5CCC(Nc6ncc(C(F)(F)F)c(-c7cnn(CC(F)(F)F)c7)n6)CC5)c4)CC3)ccc21`, the pIC50 is greater than 7.00.

As to `Cn1nc(N2CCC(=O)NC2=O)c2ccc(C3CCN(Cc4cccc(S(=O)(=O)N5CCC(Nc6ncc(C(F)(F)F)c(-c7cnn(-c8ccccc8F)c7)n6)CC5)c4)CC3)cc21`, the pIC50 was no less than 7.00.

Take `Cn1nc(N2CCC(=O)NC2=O)c2ccc(C3CCN(CC4CCN(S(=O)(=O)N5CCC(Nc6ncc(C(F)(F)F)c(-c7cnn(CC(F)(F)F)c7)n6)CC5)CC4)CC3)cc21`: the negative-log IC50 (pIC50) is greater than 7.00.

A word on the pIC50: it is the IC50 on a negative log10 scale, so that one unit is a factor of ten.

The record behind these values is ChEMBL document CHEMBL5584281, “Toward Precision Oncology: The Role of TPD in Targeting CDK2 and Beyond” (ACS Med Chem Lett, 2024).
